Values of other authors in patent US12440441B2 (LIQMEDS WORLDWIDE LIMITED, priority 2021, dated 2025).

How the values were obtained:
calcium channel = conditions: Stopher

solubility in ethanol (ethanol)	solubility in water (water)	Compound	calcium antagonist activity relative to amlodipine (calcium channel)
sparingly soluble	slightly soluble	CCOC(=O)C1=C(COCCN)NC(C)=C(C(=O)OC)C1c1ccccc1Cl (stereo not drawn) [Amlodipine besylate, amlodipine besylate]	–
–	–	CCOC(=O)c1c(COCCN)nc(C)c(C(=O)OC)c1-c1ccccc1Cl [Impurity A, Amlodipine Related Substance A]	does not show any significant calcium antagonist activity
